# Assay results reported in US10077436B2, “Beta-glucosidase enzymes for increased biomass saccharification” (Edeniq, Inc., priority 2013, dated 2018).
# Molecular target: T1, Aspergillus niger beta-glucosidase (CAB75696.1, SEQ ID NO:2) improved variant yEdQ885-BG (Aspergillus niger, UniProt Q9P8F4, Y363C/Y375F/Y610F)
# T1 construct: strain yEdQ885, BG acid/base mutant #8
# T1 sequence (Q9P8F4 20-860 Y363C/Y375F/Y610F): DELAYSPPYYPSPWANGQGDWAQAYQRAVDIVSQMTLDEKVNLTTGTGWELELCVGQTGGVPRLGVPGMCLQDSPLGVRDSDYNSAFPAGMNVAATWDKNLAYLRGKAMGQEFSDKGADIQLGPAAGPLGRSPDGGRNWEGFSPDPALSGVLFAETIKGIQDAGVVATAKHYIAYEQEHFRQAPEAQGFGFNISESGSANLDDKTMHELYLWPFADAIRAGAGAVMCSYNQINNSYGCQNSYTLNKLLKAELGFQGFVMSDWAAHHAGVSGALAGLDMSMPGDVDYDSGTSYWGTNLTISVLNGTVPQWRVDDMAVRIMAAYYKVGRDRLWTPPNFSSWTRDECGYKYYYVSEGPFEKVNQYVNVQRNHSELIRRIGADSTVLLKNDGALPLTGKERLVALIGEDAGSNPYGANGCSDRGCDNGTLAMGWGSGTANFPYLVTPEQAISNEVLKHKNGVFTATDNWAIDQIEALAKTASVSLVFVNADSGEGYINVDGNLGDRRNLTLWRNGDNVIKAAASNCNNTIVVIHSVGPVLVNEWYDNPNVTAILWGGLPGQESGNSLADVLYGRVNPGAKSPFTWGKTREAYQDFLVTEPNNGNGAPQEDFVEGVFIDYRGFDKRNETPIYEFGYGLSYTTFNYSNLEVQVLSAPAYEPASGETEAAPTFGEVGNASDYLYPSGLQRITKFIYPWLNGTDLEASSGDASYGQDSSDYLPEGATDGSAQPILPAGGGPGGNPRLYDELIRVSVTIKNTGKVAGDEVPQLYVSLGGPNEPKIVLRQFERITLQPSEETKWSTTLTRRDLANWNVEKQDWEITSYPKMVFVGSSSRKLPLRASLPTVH
# Assay: BG kinetics, cellobiose hydrolysis assay (HPLC) with glucose as competitive inhibitor, yEdQ885-BG
# Assay type: biochemical
# From the text: The beta-glucosidase (BG) gene from Aspergillus niger (Accession #CAB75696.1) was integrated into the TR3 yeast background at the T4U3 genomic site.
# High resolution enzyme assays and kinetic testing comparing the beta-glucosidases described herein and commercial enzyme preparations were pursued to more clearly quantify differences in mutant BG enzymes compared to the wild type BG enzyme. Based on data presented herein, BG mutant YEdQ885 was selected for further analysis and compared to the BG activity present in commercial preparations of SP188 (Novozymes) and Accellerase® BG (DuPont) as well as wild type BG.
# The kinetic properties of beta glucosidase are important for cellulosic hydrolysis, since in commercial situations a wide range of substrate concentrations and different product inhibition conditions will be encountered. In this example, a Michaelis-Menten kinetics model was used to describe BG kinetics. To determine these kinetic properties, BG activity assays using standard substrates pNPG and cellobiose were employed. yEdQ745-BG (wild type) and yEdQ885-BG (improved), were compared with two commercial BGs, A-BG (Accellerase®) BG from Dupont) and S-BG (Novozymes SP188 from Sigma). […]
smiles,measurement,setting,value
OC[C@H]1OC(O)[C@H](O)[C@@H](O)[C@@H]1O (some centres unmarked) [glucose],Ki,,1110 ± 190 µM
same,Km/Ki,"inhibitor influence, Km for cellobiose / Ki for glucose, pH 4.8, 50° C.",1.31
